# System: T. b. rhodesiense STIB900 bloodstream, Alamar blue, 72 h
# Test: African trypanosome bloodstream form growth inhibition – STIB900 strain, plate reader, dry powder, dose response (AID 651894)
smiles,measurement,value
C[C@@H]1CN([C@@H](C)CO)C(=O)c2cccc(NC(=O)c3ccncc3)c2O[C@H]1CN(C)Cc1ccc(Oc2ccccc2)cc1,IC50,0.17 µM
